Source: ChEMBL document CHEMBL1137476, “Synthesis of the A,B-ring-truncated OSW saponin analogs and their antitumor activities” (Bioorg Med Chem Lett, 2007)

What was measured:
[1] = test system: HeLa; assay: Antitumor activity against HeLa cells; assay type: functional, cell-based; conditions: Homo sapiens
[2] = test system: Jurkat; assay: Antitumor activity against Jurkat cells; assay type: functional, cell-based; conditions: Homo sapiens

Row | IC50 [1] [µM] | IC50 [2] [µM] | SMILES
1 | 14.9 | 8.9 | COc1ccc(C(=O)O[C@H]2[C@H](O[C@H]3[C@H](OC(C)=O)[C@@H](O[C@H]4C[C@H]5CCCC[C@]5(C)[C@@]4(O)[C@H](C)C(=O)OCC(C)C)OC[C@H]3O)OC[C@@H](O)[C@@H]2O)cc1
2 | 0.8 | 21.1 | COc1ccc(C(=O)O[C@H]2[C@H](O[C@H]3[C@H](OC(C)=O)[C@@H](O[C@H]4C[C@H]5C[C@@H](O)CC[C@]5(C)[C@@]4(O)[C@@H](C)C(=O)OCC(C)C)OC[C@H]3O)OC[C@@H](O)[C@@H]2O)cc1
3 | 0.24 | 0.0013 | COc1ccc(C(=O)O[C@H]2[C@H](O[C@H]3[C@H](OC(C)=O)[C@@H](O[C@H]4C[C@H]5[C@@H]6CC=C7C[C@@H](O)CC[C@]7(C)[C@H]6CC[C@]5(C)[C@@]4(O)[C@H](C)C(=O)OCC(C)C)OC[C@H]3O)OC[C@@H](O)[C@@H]2O)cc1
4 | 2.6 | 14.5 | COc1ccc(C(=O)O[C@H]2[C@H](O[C@H]3[C@H](OC(C)=O)[C@@H](O[C@H]4C[C@H]5C[C@@H](O)CC[C@]5(C)[C@@]4(O)[C@H](C)C(=O)OCC(C)C)OC[C@H]3O)OC[C@@H](O)[C@@H]2O)cc1
